ChEMBL document CHEMBL5576134, “Targeting Pancreatic Cancer with Novel Nicolaioidesin C Derivatives: Molecular Mechanism, In Vitro, and In Vivo Evaluations” (J Med Chem, 2024)
Calls of active or inactive are those of the source. The rule behind the calls is not given here.

Tests used:
[1] = Modulation of PI3K/AKT/mTOR signalling pathway in human MIA PaCa-2 cells in DMEM medium assessed as decrease in mTOR phosphorylation at 5 uM measured for 6 hrs by Western blot analysis; format: cell-based; details: filed as modulator
[2] = Modulation of PI3K/AKT/mTOR signalling pathway in human MIA PaCa-2 cells in DMEM medium assessed as decrease in Akt phosphorylation at 5 uM measured for 6 hrs by Western blot analysis; format: cell-based; details: filed as modulator
MIA PaCa-2 [3] = experiment: Preferential cytotoxicity against human MIA PaCa-2 cells in nutrient-deprived medium measured after 24 hrs by WST-8 cell counting analysis; format: functional
[4] = Selectivity index, ratio of IC50 for preferential cytotoxicity against human MIA PaCa-2 cells in DMEM to PC50 for preferential cytotoxicity against human MIA PaCa-2 cells in nutrient-deprived medium; format: functional
PANC-1 = experiment: Preferential cytotoxicity against human PANC-1 cells in DMEM measured after 24 hrs by WST-8 cell counting analysis; format: functional, cell-based; details: PANC-1, 24 h
[5] = Selectivity index, ratio of IC50 for preferential cytotoxicity against human PANC-1 cells in DMEM to PC50 for preferential cytotoxicity against human PANC-1 cells in nutrient-deprived medium; format: functional
MIA PaCa-2 [6] = experiment: Preferential cytotoxicity against human MIA PaCa-2 cells in nutrient-deprived medium assessed as alteration in cell morphology by fluorescence intensity measured after 24 hrs by acridine orange and ethidium bromide dual fluorescent staining based microscopic analysis; format: functional; details: dose 0.5-1 µM
MIA PaCa-2 [7] = experiment: Preferential cytotoxicity against human MIA PaCa-2 cells in nutrient-deprived medium assessed as alteration in cell morphology by measuring membrane blebbing at 0.5 to 1 uM measured after 24 hrs by acridine orange and ethidium bromide dual fluorescent staining based microscopic analysis; format: functional; details: dose 0.5-1 µM
MIA PaCa-2 [8] = experiment: Preferential cytotoxicity against human MIA PaCa-2 cells in nutrient-deprived medium assessed as alteration in cell morphology by measuring membrane rupture at 0.5 to 1 uM measured after 24 hrs by acridine orange and ethidium bromide dual fluorescent staining based microscopic analysis; format: functional; details: dose 0.5-1 µM
MIA PaCa-2 [9] = experiment: Antimetastatic activity in human MIA PaCa-2 cells in DMEM media assessed as inhibition of cell migration at 10 uM incubated for 18 hrs relative to control (reference value: 64%); format: functional
MIA PaCa-2 [10] = experiment: Antimetastatic activity in human MIA PaCa-2 cells in DMEM media assessed as inhibition of cell migration at 10 uM incubated for 36 hrs relative to control (reference value: 30%); format: functional
MIA PaCa-2 [11] = experiment: Antimetastatic activity in human MIA PaCa-2 cells in DMEM media assessed as inhibition of colony formation incubated for 24 hrs by crystal violet staining-based assay; format: functional, cell-based; details: dose 5-20 µM
MIA PaCa-2 [12] = experiment: Antimetastatic activity in human MIA PaCa-2 cells in DMEM media assessed as reduction in colony area at 5 uM incubated for 24 hrs by crystal violet staining-based assay (reference value: 37%); format: functional; parameters: scale not given: the % may be the effect or the level left
MIA PaCa-2 [13] = experiment: Antimetastatic activity in human MIA PaCa-2 cells in DMEM media assessed as reduction in colony area at 10 uM incubated for 24 hrs by crystal violet staining-based assay; format: functional; parameters: scale not given: the % may be the effect or the level left
MIA PaCa-2 [14] = experiment: Induction of endoplasmic reticulum (ER) stress in human MIA PaCa-2 cells assessed as reduction in GRP78 expression at 5 uM measured after 6 hrs by Western blot analysis; format: functional, cell-based
MIA PaCa-2 [15] = experiment: Induction of endoplasmic reticulum (ER) stress in human MIA PaCa-2 cells assessed as reduction in CHOP expression measured after 6 hrs by Western blot analysis; format: functional, cell-based; details: dose 5.0 µM
MIA PaCa-2 [16] = experiment: Induction of endoplasmic reticulum (ER) stress in human MIA PaCa-2 cells assessed as change in TRB3 level at 5 uM measured after 6 hrs by Western blot analysis; format: functional, cell-based
MIA PaCa-2 [17] = experiment: Induction of endoplasmic reticulum (ER) stress in human MIA PaCa-2 cells in NDM medium assessed as change in TRB3 level at 5 uM measured after 6 hrs by Western blot analysis; format: functional, cell-based
[18] = Modulation of PI3K/AKT/mTOR signalling pathway in human MIA PaCa-2 cells in DMEM medium assessed as downregulation of AKT expression at 1 to 5 uM incubated for 24 hrs in presence of gemcitabine by Western blot analysis; format: cell-based; details: filed as modulator, dose 1-5 µM
[19] = Modulation of PI3K/AKT/mTOR signalling pathway in human MIA PaCa-2 cells in DMEM medium assessed as downregulation of GRP78 expression incubated for 24 hrs in presence of gemcitabine by Western blot analysis; format: cell-based; details: filed as modulator, dose 1-5 µM
[20] = Modulation of PI3K/AKT/mTOR signalling pathway in human MIA PaCa-2 cells in DMEM medium assessed as downregulation of AKT expression incubated for 24 hrs in presence of gemcitabine by Western blot analysis; format: cell-based; details: filed as modulator, dose 1-5 µM
[21] = Toxicity in BALB/c/Nu/Nu mouse xenografted with human MIA PaCa-2 cells assessed as change in body weight at 20 mg/kg, ip administered 5 times a week for 4 weeks; format: organism-based; details: in vivo, 672 h
MIA PaCa-2 [22] = experiment: Antitumor activity against human MIA PaCa-2 cells xenografted in BALB/c/Nu/Nu mouse assessed as tumor volume at 20 mg/kg, ip administered 5 times a week for 4 weeks and measured on day 32 (reference value: 1417 mm3); format: functional; details: time 32 day
[23] = Toxicity in BALB/c/Nu/Nu mouse xenografted with human MIA PaCa-2 cells assessed as change in abdominal organs at 60 mg/kg, ip administered 5 times a week for 4 weeks; format: organism-based; details: in vivo, 672 h
MIA PaCa-2 [24] = experiment: Antitumor activity against human MIA PaCa-2 cells xenografted in BALB/c/Nu/Nu mouse assessed as reduction in tumor volume at 20 mg/kg, ip administered 5 times a week for 4 weeks and measured on day 16; format: functional, organism-based; details: time 16.0 day
MIA PaCa-2 [25] = experiment: Antitumor activity against human MIA PaCa-2 cells xenografted in BALB/c/Nu/Nu mouse assessed as tumor volume at 60 mg/kg, ip administered 5 times a week for 4 weeks and measured on day 32 in presence of gemcitabine (reference value: 1417 mm3); format: functional; details: time 32 day
MIA PaCa-2 [26] = experiment: Antitumor activity against human MIA PaCa-2 cells xenografted in BALB/c/Nu/Nu mouse assessed as reduction in final tumor weight at 20 mg/kg, ip administered 5 times a week for 4 weeks (reference value: […]); format: functional
MIA PaCa-2 [27] = experiment: Antitumor activity against human MIA PaCa-2 cells xenografted in BALB/c/Nu/Nu mouse assessed as reduction in number of blood vessels in skin at 20 mg/kg, ip administered 5 times a week for 4 weeks; format: functional, organism-based
Mus musculus = experiment: In-vivo modulation of PI3K/AKT/mTOR signalling pathway in human MIA PaCa-2 cells xenografted in BALB/c/Nu/Nu mouse assessed as downregulation of Akt phosphorylation at 60 mg/kg, ip administered 5 times a week for 4 weeks in presence of gemcitabine by Western blot analysis; format: functional, organism-based
MIA PaCa-2 [28] = experiment: Antitumor activity against human MIA PaCa-2 cells xenografted in BALB/c/Nu/Nu mouse assessed as reduction in tumor cell density at 60 mg/kg, ip administered 5 times a week for 4 weeks by H and E staining based analysis; format: functional, organism-based

**Q.** What does the source list for `CC(C)=CCCC1=CC[C@H](C(=O)c2c(O)cccc2O)[C@@H](c2cccc(F)c2F)C1` (relative stereo)?
**A.** Activity [1]: Active; Activity [2]: Active; PC50 (MIA PaCa-2 [3]): 0.34 µM; Selectivity Index [4]: 176; IC50 (PANC-1): 9.2 µM; Selectivity Index [5]: 40.8; Activity (MIA PaCa-2 [6]): Dose-Dependent Effect; Activity (MIA PaCa-2 [7]): Active; Activity (MIA PaCa-2 [8]): Active; inhibition at 10 µM (MIA PaCa-2 [9]): 92%; inhibition at 10 µM (MIA PaCa-2 [10]): 77%; Activity (MIA PaCa-2 [11]): Dose-Dependent Effect; Activity (MIA PaCa-2 [12]): 14%; Activity (MIA PaCa-2 [13]): 91%; Activity (MIA PaCa-2 [14]): Active; Activity (MIA PaCa-2 [15]): Dose-Dependent Effect; Activity (MIA PaCa-2 [16]): Active; Activity (MIA PaCa-2 [17]): Active; Activity [18]: Active; Activity [19]: Dose-Dependent Effect; Activity [20]: Dose-Dependent Effect; Activity [21]: Non-Toxic; Activity (MIA PaCa-2 [22]): 879 mm3; Activity [23]: Non-Toxic; Activity (MIA PaCa-2 [24]): Active; Activity (MIA PaCa-2 [25]): 528 mm3; Activity (MIA PaCa-2 [26]): 321 mg; Activity (MIA PaCa-2 [27]): Active; Activity (Mus musculus): Active; Activity (MIA PaCa-2 [28]): Active
